This is an account of results in US12540141B2, “Spiropyrrolidine derived antiviral agents” (priority 2020, dated 2026).

The assay has as its target SARS-CoV-2 3CL-protease (Severe acute respiratory syndrome coronavirus 2, UniProt P0DTD1). The assay can be described thus: SARS-CoV-2 3C-Like (3CL) Protease Fluorescence Assay (FRET). As to conditions: SARS-CoV-2 3CL-protease 10 nM, 30 min preincubation at RT, substrate 40 μM. The assay is classed as biochemical.

Structures are written as SMILES.

Take `CC(C)C[C@@H](C(=O)N1C[C@]2(C[C@H]1C#N)C(=O)Nc1ccccc12)N(C)C(=O)c1ccc2ncc(F)cc2c1` [Example 235]: the half-inhibitory concentration (IC50) was below 100 nM.

As to `CC(C)C[C@@H](C(=O)N1C[C@]2(C[C@H]1C#N)C(=O)Nc1ccccc12)N(C)C(=O)c1cc2ccc(Br)cc2cn1` [Example 236], the IC50 fell in the range of 100 to 1000 nM.

`CC(C)C[C@@H](C(=O)N1C[C@]2(C[C@H]1C#N)C(=O)Nc1ccccc12)N(C)C(=O)c1ccc2ncc(C(F)(F)F)cc2c1` [Example 237] yielded an IC50 below 100 nM.

Molecule `Cc1cc2cc(C(=O)N(C)[C@@H](CC(C)C)C(=O)N3C[C@]4(C[C@H]3C#N)C(=O)Nc3ccccc34)cc(OC(F)(F)F)c2nc1C` [Example 238] showed a half-maximal inhibitory concentration (IC50) below 100 nM.

As to `CC(C)C[C@@H](C(=O)N1C[C@]2(C[C@H]1C#N)C(=O)Nc1ccccc12)N(C)C(=O)c1cc(Cl)c2ncc(C3CC3)cc2c1` [Example 239], the IC50 was in the range of 100 to 1000 nM.

As to `CC(C)C[C@@H](C(=O)N1C[C@]2(C[C@H]1C#N)C(=O)Nc1ccccc12)N(C)C(=O)c1cc(Cl)c2ncc(C(F)(F)F)cc2c1` [Example 240], the IC50 was below 100 nM.

`CC(C)C[C@@H](C(=O)N1C[C@]2(C[C@H]1C#N)C(=O)Nc1ccccc12)N(C)C(=O)c1cccc2ccccc12` [Example 241]: the half-maximal inhibitory concentration (IC50) was below 100 nM.

For the molecule `CC(C)C[C@@H](C(=O)N1C[C@]2(C[C@H]1C#N)C(=O)Nc1ccccc12)N(C)C(=O)c1ccc2ccsc2c1` [Example 246], the IC50 lay in the range of 100 to 1000 nM.

Molecule `CC(C)C[C@@H](C(=O)N1C[C@]2(C[C@H]1C#N)C(=O)Nc1ccccc12)N(C)C(=O)c1cc2ccccn2n1` [Example 247] gave an IC50 of 100 to 1000 nM.

Molecule `CC(C)C[C@@H](C(=O)N1C[C@]2(C[C@H]1C#N)C(=O)Nc1ccccc12)N(C)C(=O)C#Cc1ccccc1` [Example 248] showed a 50% inhibitory concentration (IC50) of 100 to 1000 nM.

For `COc1ccc2[nH]c(C(=O)N(C)[C@@H](CC(C)C)C(=O)N3C[C@]4(C[C@H]3C#N)C(=O)Nc3ccccc34)nc2c1` [Example 249], the IC50 is below 100 nM.

`CC(C)C[C@@H](C(=O)N1C[C@]2(C[C@H]1C#N)C(=O)Nc1ccccc12)N(C)C(=O)c1nc2cc(F)ccc2[nH]1` [Example 250]: the IC50 was below 100 nM.

Consider `CC(C)C[C@@H](C(=O)N1C[C@]2(C[C@H]1C#N)C(=O)Nc1ccccc12)N(C)C(=O)c1nc2cc(Cl)c(Cl)cc2[nH]1` [Example 251], for which the IC50 fell in the range of 100 to 1000 nM.

`Cc1cccc2[nH]c(C(=O)N(C)[C@@H](CC(C)C)C(=O)N3C[C@]4(C[C@H]3C#N)C(=O)Nc3ccccc34)nc12` [Example 252] displayed an IC50 below 100 nM.

Consider `CC(C)C[C@@H](C(=O)N1C[C@]2(C[C@H]1C#N)C(=O)Nc1ccccc12)N(C)C(=O)c1cc2cccnc2cc1OC(F)F` [Example 253], for which the 50% inhibitory concentration (IC50) was below 100 nM.

For `CC(C)C[C@@H](C(=O)N1C[C@]2(C[C@H]1C#N)C(=O)Nc1ccccc12)N(C)C(=O)c1cc2ccc(=O)[nH]c2cc1OC1CC1` [Example 254], the IC50 was below 100 nM.

In turn, `CC(C)C[C@@H](C(=O)N1C[C@]2(C[C@H]1C#N)C(=O)Nc1ccccc12)N(C)C(=O)c1cc(Cl)c2[nH]c(C3CC3)nc2c1` [Example 256] came in with an IC50 below 100 nM.

In turn, `CC(C)C[C@@H](C(=O)N1C[C@]2(C[C@H]1C#N)C(=O)Nc1ccccc12)N(C)C(=O)c1ccc2nc(-c3ccccc3)ccc2c1` [Example 257] came in with a half-inhibitory concentration (IC50) of 100 to 1000 nM.

Consider `COc1cc(C(=O)N(C)[C@@H](CC(C)C)C(=O)N2C[C@]3(C[C@H]2C#N)C(=O)Nc2ccccc23)nc2ccccc12` [Example 258], for which the concentration for half-maximal inhibition (IC50) was 100 to 1000 nM.

In turn, `Cc1cc(C)c2ccc(C(=O)N(C)[C@@H](CC(C)C)C(=O)N3C[C@]4(C[C@H]3C#N)C(=O)Nc3ccccc34)nc2c1O` [Example 259] yielded a concentration for half-maximal inhibition (IC50) of 100 to 1000 nM.

For the molecule `CC(C)C[C@@H](C(=O)N1C[C@]2(C[C@H]1C#N)C(=O)Nc1ccccc12)N(C)C(=O)c1cnc2ccccc2c1O` [Example 260], the IC50 lay within 100 to 1000 nM.

With `CC(C)C[C@@H](C(=O)N1C[C@]2(C[C@H]1C#N)C(=O)Nc1ccccc12)N(C)C(=O)c1ccccc1-c1ccccc1` [Example 261], the IC50 was 100 to 1000 nM.

In the case of `CC(C)C[C@@H](C(=O)N1C[C@]2(C[C@H]1C#N)C(=O)Nc1ccccc12)N(C)C(=O)c1cc(-c2ccccc2)ccc1Cl` [Example 262], the IC50 lay in the range of 100 to 1000 nM.

As to `CC(C)C[C@@H](C(=O)N1C[C@]2(C[C@H]1C#N)C(=O)Nc1ccccc12)N(C)C(=O)c1cccc(-c2ccc(C(F)(F)F)cc2)c1` [Example 263], the IC50 fell in the range of 100 to 1000 nM.

`CC(C)C[C@@H](C(=O)N1C[C@]2(C[C@H]1C#N)C(=O)Nc1ccccc12)N(C)C(=O)c1cccc(-c2ccccc2F)c1` [Example 264] had an IC50 of 100 to 1000 nM.

The molecule `CC(C)C[C@@H](C(=O)N1C[C@]2(C[C@H]1C#N)C(=O)Nc1ccccc12)N(C)C(=O)c1cccc(-c2ccc(C#N)cc2)c1` [Example 265] yielded an IC50 of 100 to 1000 nM.

Consider `CC(C)C[C@@H](C(=O)N1C[C@]2(C[C@H]1C#N)C(=O)Nc1ccccc12)N(C)C(=O)c1cccc(-c2cccc(Cl)c2)c1` [Example 266], for which the IC50 lay in the range of 100 to 1000 nM.

`CC(C)C[C@@H](C(=O)N1C[C@]2(C[C@H]1C#N)C(=O)Nc1ccccc12)N(C)C(=O)c1cn(-c2ccccn2)nn1` [Example 267] displayed an IC50 below 100 nM.

With `CC(C)C[C@@H](C(=O)N1C[C@]2(C[C@H]1C#N)C(=O)Nc1ccccc12)N(C)C(=O)c1cnc2c(C(F)(F)F)cccc2c1` [Example 268], the IC50 fell in the range of 100 to 1000 nM.

The molecule `CC(C)C[C@@H](C(=O)N1C[C@]2(C[C@H]1C#N)C(=O)Nc1ccccc12)N(C)C(=O)c1nc2c(F)cc(F)cc2[nH]1` [Example 269] displayed an IC50 below 100 nM.

Consider `CC(C)C[C@@H](C(=O)N1C[C@]2(C[C@H]1C#N)C(=O)Nc1ccccc12)N(C)C(=O)c1nc2c(F)cc(F)c(F)c2[nH]1` [Example 270], for which the IC50 is below 100 nM.

For `CC(C)C[C@@H](C(=O)N1C[C@]2(C[C@H]1C#N)C(=O)Nc1ccccc12)N(C)C(=O)c1ccc2c(Cl)ccnc2c1` [Example 271], the half-inhibitory concentration (IC50) was 100 to 1000 nM.

Turning to `CC(C)C[C@@H](C(=O)N1C[C@]2(C[C@H]1C#N)C(=O)Nc1ccccc12)N(C)C(=O)c1ccc(F)c(-c2ccccc2)c1` [Example 272], the IC50 lay in the range of 100 to 1000 nM.

Turning to `CC(C)C[C@@H](C(=O)N1C[C@]2(C[C@H]1C#N)C(=O)Nc1ccccc12)N(C)C(=O)c1nc2c(F)c(F)c(F)cc2[nH]1` [Example 273], the IC50 is 100 to 1000 nM.

Consider `CC(C)C[C@@H](C(=O)N1C[C@]2(C[C@H]1C#N)C(=O)Nc1ccccc12)N(C)C(=O)c1ccc2nccc(Br)c2c1` [Example 274], for which the IC50 was below 100 nM.

For the molecule `CC(C)C[C@@H](C(=O)N1C[C@]2(C[C@H]1C#N)C(=O)Nc1ccccc12)N(C)C(=O)c1cc2cccnc2cc1F` [Example 275], the IC50 is below 100 nM.

In the case of `CC(C)C[C@@H](C(=O)N1C[C@]2(C[C@H]1C#N)C(=O)Nc1ccccc12)N(C)C(=O)c1ccc2c(=O)[nH]ccc2c1` [Example 276], the IC50 is below 100 nM.

In turn, `CC(C)C[C@@H](C(=O)N1C[C@]2(C[C@H]1C#N)C(=O)Nc1ccccc12)N(C)C(=O)c1ccc(-c2ccccc2)cc1` [Example 277] yielded an IC50 of 100 to 1000 nM.

For the molecule `CC(C)C[C@@H](C(=O)N1C[C@]2(C[C@H]1C#N)C(=O)Nc1ccccc12)N(C)C(=O)c1cccc(-c2ccccc2C#N)c1` [Example 278], the IC50 was below 100 nM.

`CC(C)C[C@@H](C(=O)N1C[C@]2(C[C@H]1C#N)C(=O)Nc1ccccc12)N(C)C(=O)c1cccc(-c2cccc(C#N)c2)c1` [Example 279] displayed a half-inhibitory concentration (IC50) of 100 to 1000 nM.

The molecule `CC(C)C[C@@H](C(=O)N1C[C@]2(C[C@H]1C#N)C(=O)Nc1ccccc12)N(C)C(=O)c1nc2ccccc2n1C` [Example 282] returned an IC50 of 100 to 1000 nM.

For the molecule `CC(C)C[C@@H](C(=O)N1C[C@]2(C[C@H]1C#N)C(=O)Nc1ccccc12)N(C)C(=O)c1cn(-c2ccc(F)cc2)nn1` [Example 283], the IC50 is below 100 nM.

`CC(C)C[C@@H](C(=O)N1C[C@]2(C[C@H]1C#N)C(=O)Nc1ccccc12)N(C)C(=O)c1cn(-c2ccc(Cl)cc2)nn1` [Example 284] returned an IC50 below 100 nM.

As to `CC(C)C[C@@H](C(=O)N1C[C@]2(C[C@H]1C#N)C(=O)Nc1ccccc12)N(C)C(=O)c1ccc2cccnc2c1O` [Example 285], the IC50 is 100 to 1000 nM.

`CC(C)C[C@@H](C(=O)N1C[C@]2(C[C@H]1C#N)C(=O)Nc1ccccc12)N(C)C(=O)c1cn(-c2cccc(Cl)c2)nn1` [Example 286] returned an IC50 below 100 nM.

Molecule `CC(C)C[C@@H](C(=O)N1C[C@]2(C[C@H]1C#N)C(=O)Nc1ccccc12)N(C)C(=O)c1n[nH]c(-c2ccccc2)n1` [Example 288] gave an IC50 of 100 to 1000 nM.

As to `CC(C)C[C@@H](C(=O)N1C[C@]2(C[C@H]1C#N)C(=O)Nc1ccccc12)N(C)C(=O)C[C@@H](Cc1cc(F)c(F)cc1F)NC(=O)OC(C)(C)C` [Example 289], the IC50 is below 100 nM.

For `CC(C)C[C@@H](C(=O)N1C[C@]2(C[C@H]1C#N)C(=O)Nc1ccccc12)N(C)C(=O)c1ccc2c(F)cc(F)cc2n1` [Example 290], the IC50 fell in the range of 100 to 1000 nM.

`CC(C)C[C@@H](C(=O)N1C[C@]2(C[C@H]1C#N)C(=O)Nc1ccccc12)N(C)C(=O)C[C@H](Cc1cc(F)c(F)cc1F)NC(=O)OC(C)(C)C` [Example 291] showed a concentration for half-maximal inhibition (IC50) below 100 nM.

In turn, `COc1cc(F)c2cc(C(=O)N(C)[C@@H](CC(C)C)C(=O)N3C[C@]4(C[C@H]3C#N)C(=O)Nc3ccccc34)[nH]c2c1F` [Example 292] came in with an IC50 below 100 nM.

Turning to `CC(C)C[C@@H](C(=O)N1C[C@]2(C[C@H]1C#N)C(=O)Nc1ccccc12)N(C)C(=O)c1cccc2ccncc12` [Example 293], the IC50 is below 100 nM.

The molecule `CC(C)C[C@@H](C(=O)N1C[C@]2(C[C@H]1C#N)C(=O)Nc1ccccc12)N(C)C(=O)c1ccnc2ccccc12` [Example 294] gave an IC50 below 100 nM.

`CC(C)C[C@@H](C(=O)N1C[C@]2(C[C@H]1C#N)C(=O)Nc1ccccc12)N(C)C(=O)c1cncc2ccccc12` [Example 295] registered an IC50 below 100 nM.

`CC(C)C[C@@H](C(=O)N1C[C@]2(C[C@H]1C#N)C(=O)Nc1ccccc12)N(C)C(=O)c1cccc2cccnc12` [Example 296] showed an IC50 of 100 to 1000 nM.

Turning to `CC(C)C[C@@H](C(=O)N1C[C@]2(C[C@H]1C#N)C(=O)Nc1ccccc12)N(C)C(=O)c1ccc2nccnc2c1` [Example 297], the IC50 was in the range of 100 to 1000 nM.

The IC50 is the point on the concentration scale where inhibition reaches its midpoint.
